Laboratory results published in article PMC4402707 (Neurotherapeutics : the journal of the American Society for …, 2009).
Read-outs that look alike come from different tables or passages of the source. Where a SMILES comes first, the peptide text is derived from it. [ ]: non-standard residue; d: D form. The star is where a group is joined. Fmoc = O=C(OCC1c2ccccc2-c2ccccc21)*; Cha = N[C@@H](CC1CCCCC1)C(=O)O; AMC = Cc1cc(=O)oc2cc(N*)ccc12

Key:
[1] = system: corneal kindled mouse (fully expressed secondarily generalized seizure); settings: i.p.; ref Rowley et al., manuscript in preparation; cited from earlier work
[2] = system: CF-1 mice (seizures induced by 6 Hz corneal stimulation); test: 6 Hz psychomotor seizure test; assay type: in vivo, mouse; settings: 4 mg/kg i.p.
[3] = system: CF-1 mice (seizures induced by 6 Hz corneal stimulation); settings: cited from earlier work; for ED50, 6 Hz model, 44 mA (95% confidence interval) / ED50, 6 Hz model, 32 mA (95% confidence interval): ref Barton et al., 2001[19]
[4] = system: galanin receptors GalR1 and GalR2; settings: cited from earlier work; for Fold difference in affinity for GalR1 and GalR2: receptor subtype specificity
[5] = system: non-galanin receptors (5-HT-1A and 1B, D2 dopamine, ghrelin, melanocortin, NPY, μ-opioid receptors); settings: at 10 μM, NPY (galnon only), μ-opioid (galmic only); cited from earlier work

NC(=O)N1c2ccccc2C=Cc2ccccc21 [CBZ, carbamazepine]
Active dose in corneal kindled mouse model [1]: 33 mg/kg

Ac-YLLGPKK(Lys-P)K [NAX 5055 truncated]
Activity in 6 Hz 32 mA model (in words) ([2]; 32 mA, tested across time): inactive
Mice protected from seizures / mice tested, 15′ ([2]; 6 Hz 32 mA, CF-1 mice, 15 min, groups of four): 0/4
Mice protected from seizures / mice tested, 30′ ([2]; 6 Hz 32 mA, CF-1 mice, 30 min, groups of four): 0/4
Mice protected from seizures / mice tested, 60′ ([2]; 6 Hz 32 mA, CF-1 mice, 60 min, groups of four): 0/4
Mice protected from seizures / mice tested, 120′ ([2]; 6 Hz 32 mA, CF-1 mice, 120 min, groups of four): 0/4
Mice protected from seizures / mice tested, 240′ ([2]; 6 Hz 32 mA, CF-1 mice, 240 min, groups of four): 0/4

CCC1(C)CC(=O)NC1=O (centres unmarked) [Ethosuximide, ethosuximide]
ED50, 6 Hz model, 44 mA (95% confidence interval) ([3]; i.p.): > 600 mg/kg

COC(=O)[C@H](CCCCN)NC(=O)[C@]1(C)NC(=O)c2nc(oc2C)[C@](C)(C(=O)NC2c3ccccc3-c3ccccc32)NC(=O)c2nc(oc2C)[C@](C)(C(=O)NCC2CCCCC2)NC(=O)c2nc1oc2C [galmic]
Fold lower affinity for galanin receptors relative to the native peptide [4]: 10,000-100,000 fold
Fold difference in affinity for GalR1 and GalR2 [4]: 2-3 fold
Interaction with non-galanin receptors [5]: interact with a variety of non-galanin receptors

O=C1NC(=O)C(c2ccccc2)(c2ccccc2)N1 [Phenytoin, phenytoin]
ED50, 6 Hz model, 32 mA (95% confidence interval) ([3]; i.p., 32 mA): > 60 mg/kg
ED50, 6 Hz model, 44 mA (95% confidence interval) ([3]; i.p.): > 60 mg/kg

Cc1cc(=O)oc2cc(NC(=O)[C@H](CCCCN)NC(=O)[C@H](CC3CCCCC3)NC(=O)OCC3c4ccccc4-c4ccccc43)ccc12 [galnon] (Fmoc-[Cha]-Lys-{AMC})
Fold lower affinity for galanin receptors relative to the native peptide [4]: 10,000-100,000 fold
Fold difference in affinity for GalR1 and GalR2 [4]: 2-3 fold
Interaction with non-galanin receptors [5]: interact with a variety of non-galanin receptors

GWTLNSAGYLLGPHAV-NH2 [Gal(1-16)]
Activity in 6 Hz 32 mA model (in words) ([3]; 4 mg/kg i.p., 32 mA, ref Bulaj et al, 2008.[17]): inactive

COC[C@@H](NC(C)=O)C(=O)NCc1ccccc1 [Lacosamide]
ED50 ([3]; read-out: ED50, 6 Hz model, 32 mA (95% confidence interval), i.p., 32 mA, ref Stöhr et al., 2007[44]): 9.9 mg/kg

Nc1nnc(-c2cccc(Cl)c2Cl)c(N)n1 [Lamotrigine, lamotrigine]
ED50, 6 Hz model, 32 mA (95% confidence interval) ([3]; i.p., 32 mA): > 60 mg/kg
ED50, 6 Hz model, 44 mA (95% confidence interval) ([3]; i.p.): > 60 mg/kg
